Laboratory results taken from patent US8435994B2, “Substituted [1,2,4]triazolo[4,3-alpha]quinoxalines as adenosine A2a receptor antagonists” (Merck Sharp & Dohme Corp., priority 2009, dated 2013).

biological target: T1, Human A2a Adenosine Receptor (Homo sapiens, UniProt P29274); assay: Human Adenosine A2a Receptor Competition Binding Assay ([3H]-SCH 58261 displacement); details: Table I; human A2a membranes, [3H]-SCH 58261 0.5 nM, Cheng-Prusoff; read-out: Activity (Ki)
T1 construct: purchased Receptor Biology, Inc., Beltsville, Md; RB-HA2a
T1 sequence (P29274 whole entry): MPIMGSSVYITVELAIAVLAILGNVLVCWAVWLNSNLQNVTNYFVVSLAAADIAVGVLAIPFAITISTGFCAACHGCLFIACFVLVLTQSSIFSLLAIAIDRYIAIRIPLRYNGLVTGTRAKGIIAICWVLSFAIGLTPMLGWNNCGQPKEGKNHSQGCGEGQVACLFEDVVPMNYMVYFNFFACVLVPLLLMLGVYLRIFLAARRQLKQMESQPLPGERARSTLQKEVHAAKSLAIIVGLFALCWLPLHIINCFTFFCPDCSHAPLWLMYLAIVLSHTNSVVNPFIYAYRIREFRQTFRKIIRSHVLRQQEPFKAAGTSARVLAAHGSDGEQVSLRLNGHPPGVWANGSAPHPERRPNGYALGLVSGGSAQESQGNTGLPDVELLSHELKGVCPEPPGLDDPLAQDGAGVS
Experimental: Human Adenosine A2a Receptor Competition Binding Assay Protocol
A2a: Human A2a Adenosine Receptor membranes, Catalog #RB-HA2a, Receptor Biology, Inc., Beltsville, Md. Dilute to 17 μg/100 μl in membrane dilution buffer (see below).
Membrane dilution buffer: Dulbecco's Phosphate Buffered Saline (Gibco/BRL)+ 10 mM MgCl2.
Compound Dilution Buffer: Dulbecco's Phosphate Buffered Saline (Gibco/BRL)+10 mM MgCl2 supplemented with 1.6 mg/ml methyl cellulose and 16% DMSO. Prepared fresh daily.
A2a: [3H]-SCH 58261 [7-(2-phenylethyl)-5-amino-2-(2-furyl)-pyrazolo-[4,3-e]-1,2,4-triazolo[1,5-c]pyrimidine], custom synthesis, Amersham Pharmacia Biotech, Piscataway, N.J. Stock is prepared at 1 nM in membrane dilution buffer. Final assay concentration is 0.5 nM. SCH-58261 is discussed in Zocchi et al., J Pharmacol Exp Ther. 276(2):398-404 (1996).
A2a: To determine non-specific binding, add 100 nM CGS 15923 (RBI, Natick, Mass.). Working stock is prepared at 400 nM in compound dilution buffer.
Prepare 1 mM stock solutions of compounds in 100% DMSO. Dilute in compound dilution buffer. Test at 10 concentrations ranging from 3 μM to 30 μM. Prepare working solutions at 4× final concentration in compound dilution buffer.
Perform assays in deep well 96 well plates. Total assay volume is 200 μl. Add 50 μl compound dilution buffer (total ligand binding) or 50 μl […] working solution (A2a non-specific binding) or 50 μl of drug working solution.

Question: How did the Ki turn out when `Nc1nc2ccc(F)cc2n2c(=O)n(Cc3c(F)cccc3C(F)(F)F)nc12` [Compound 22] was run?
Answer: 2.2 nM

Question: How did the Ki turn out when `COc1ccc2nc(N)c3nn(Cc4ccccc4C(F)(F)F)c(=O)n3c2c1` [Compound 51] was run?
Answer: 51.5 nM

Question: Which Ki does the source give for `Nc1nc2ccc(F)cc2n2c(=O)n(Cc3c(F)cccc3F)nc12` [Compound 7] here?
Answer: 0.7 nM

Question: `Nc1nc2ccccc2n2c(=O)n(Cc3ccccc3C(=O)N3CCOCC3)nc12` [Compound 54] was tested. Which Ki did it give?
Answer: 66.4 nM

Question: `Nc1nc2ccccc2n2c(=O)n(Cc3ccccc3CO)nc12` [Compound 11] was tested. Which Ki did it give?
Answer: 1.2 nM

Question: `COC(=O)c1ccccc1Cn1nc2c(N)nc3ccccc3n2c1=O` [Compound 26] was tested. Which Ki did it give?
Answer: 1.9 nM

Question: `COc1cccc(OC)c1Cn1nc2c(N)nc3ccccc3n2c1=O` [Compound 44] was tested. Which Ki did it give?
Answer: 14 nM

Question: `Nc1nc2cc(F)c(F)cc2n2c(=O)n(Cc3c(F)cc(F)cc3F)nc12` [Compound 24] was tested. Which Ki did it give?
Answer: 2.8 nM

Question: `N=c1n(Cc2ccccc2)nc2c(N)nc3ccccc3n12` [Compound 35] was tested. Which Ki did it give?
Answer: 6 nM

Question: How did the Ki turn out when `Nc1nc2ccccc2n2c(=O)n(Cc3c(F)cc(F)cc3F)nc12` [Compound 13] was run?
Answer: 1.4 nM

Question: Which Ki does the source give for `Nc1nc2cc(CO)ccc2n2c(=O)n(Cc3ccccc3)nc12` [Compound 40] here?
Answer: 8.6 nM

Question: How did the Ki turn out when `Nc1nc2ccccc2n2c(=O)n(Cc3c(Cl)cccc3Cl)nc12` [Compound 30] was run?
Answer: 3.2 nM

Question: Which Ki does the source give for `Nc1nc2cc(F)c(F)cc2n2c(=O)n(Cc3c(F)cccc3F)nc12` [Compound 1] here?
Answer: 0.4 nM

Question: `Nc1ccc2c(c1)nc(N)c1nn(Cc3ccccc3)c(=O)n12` [Compound 33] was tested. Which Ki did it give?
Answer: 5.6 nM

Question: `CN(C)C(=O)c1ccccc1Cn1nc2c(N)nc3ccccc3n2c1=O` [Compound 48] was tested. Which Ki did it give?
Answer: 28.9 nM

Question: With `Cc1cccc2nc(N)c3nn(Cc4ccccc4)c(=O)n3c12` [Compound 36] as the compound, how does the Ki read?
Answer: 7.1 nM

Question: With `CCCCNc1nc2ccc(F)cc2n2c(=O)n(Cc3ccccc3)nc12` [Compound 46] as the compound, how does the Ki read?
Answer: 28.9 nM

Question: How did the Ki turn out when `Nc1nc2ccc(F)cc2n2c(=O)n(Cc3c(F)cc(F)cc3F)nc12` [Compound 12] was run?
Answer: 1 nM

Question: `Nc1nc2ccc(CO)cc2n2c(=O)n(Cc3ccccc3)nc12` [Compound 53] was tested. Which Ki did it give?
Answer: 60 nM

Question: Which Ki does the source give for `Nc1nc2cc(CO)ccc2n2c(=O)n(Cc3ccccc3F)nc12` [Compound 49] here?
Answer: 38.4 nM

Question: Which Ki does the source give for `CC(=O)Nc1ccccc1Cn1nc2c(N)nc3ccccc3n2c1=O` [Compound 38] here?
Answer: 7.4 nM

Question: With `Nc1nc2ccc(F)cc2n2c(=O)n(Cc3ccc(F)cc3)nc12` [Compound 10] as the compound, how does the Ki read?
Answer: 1 nM

Question: `Nc1nc2ccccc2n2c(=O)n(Cc3c(F)cccc3F)nc12` [Compound 9] was tested. Which Ki did it give?
Answer: 1 nM

Question: With `Nc1nc2cc(C=O)ccc2n2c(=O)n(Cc3ccccc3)nc12` [Compound 25] as the compound, how does the Ki read?
Answer: 2.6 nM

Question: Which Ki does the source give for `Nc1nc2ccccc2n2c(=O)n(Cc3c(F)cccc3C(F)(F)F)nc12` [Compound 27] here?
Answer: 2.5 nM

Question: With `Nc1nc2cc(Cl)c(Cl)cc2n2c(=O)n(Cc3ccccc3)nc12` [Compound 16] as the compound, how does the Ki read?
Answer: 1.4 nM

Question: `Nc1ccccc1Cn1nc2c(N)nc3ccccc3n2c1=O` [Compound 5] was tested. Which Ki did it give?
Answer: 0.7 nM

Question: `Nc1nc2ccccc2n2c(=O)n(Cc3ccccc3)nc12` [Compound 2] was tested. Which Ki did it give?
Answer: 0.7 nM

Question: For `CS(=O)(=O)c1ccccc1Cn1nc2c(N)nc3ccccc3n2c1=O` [Compound 41], which Ki is on record?
Answer: 8.3 nM

Question: How did the Ki turn out when `CN(C)/C=N\c1ccccc1Cn1nc2c(N)nc3ccccc3n2c1=O` [Compound 39] was run?
Answer: 8.2 nM

Question: Which Ki does the source give for `N#C/N=c1\n(Cc2ccccc2)nc2c(N)nc3ccccc3n12` [Compound 32] here?
Answer: 4.7 nM

Question: Which Ki does the source give for `Nc1nc2cc(C(F)(F)F)ccc2n2c(=O)n(Cc3c(F)cccc3F)nc12` [Compound 20] here?
Answer: 1.8 nM

Question: For `Nc1nc2cccnc2n2c(=O)n(Cc3ccccc3)nc12` [Compound 50], which Ki is on record?
Answer: 46.3 nM

Question: Which Ki does the source give for `N#Cc1ccccc1Cn1nc2c(N)nc3ccccc3n2c1=O` [Compound 14] here?
Answer: 1.2 nM

Question: Which Ki does the source give for `CC(C)(O)c1ccccc1Cn1nc2c(N)nc3ccccc3n2c1=O` [Compound 23] here?
Answer: 2 nM

Question: `Nc1nc2ccccc2n2c(=O)n(Cc3cc(F)cc(F)c3)nc12` [Compound 37] was tested. Which Ki did it give?
Answer: 7.4 nM

Question: `COC(=O)c1ccc2c(c1)nc(N)c1nn(Cc3ccccc3)c(=O)n12` [Compound 19] was tested. Which Ki did it give?
Answer: 1.7 nM

Question: With `Nc1nc2ccccc2n2c(=O)n(Cc3ccccc3[N+](=O)[O-])nc12` [Compound 29] as the compound, how does the Ki read?
Answer: 3.2 nM

Question: `CC(O)c1ccc2c(c1)nc(N)c1nn(Cc3ccccc3)c(=O)n12` (stereo not drawn) [Compound 52] was tested. Which Ki did it give?
Answer: 54.9 nM

Question: `CC(c1ccccc1)n1nc2c(N)nc3ccccc3n2c1=O` (stereo not drawn) [Compound 56] was tested. Which Ki did it give?
Answer: 91.1 nM

Question: How did the Ki turn out when `Nc1nc2cc([N+](=O)[O-])ccc2n2c(=O)n(Cc3ccccc3)nc12` [Compound 15] was run?
Answer: 1.4 nM

Question: For `Nc1nc2ccc(F)cc2n2c(=O)n(Cc3ccccc3)nc12` [Compound 6], which Ki is on record?
Answer: 0.9 nM

Question: `Nc1nc2ccccc2n2c(=O)n(Cc3ccc(F)cc3)nc12` [Compound 18] was tested. Which Ki did it give?
Answer: 1.9 nM

Question: `CC(=O)c1ccc2c(c1)nc(N)c1nn(Cc3ccccc3)c(=O)n12` [Compound 31] was tested. Which Ki did it give?
Answer: 3 nM

Question: For `Nc1nc2ccc(Cl)cc2n2c(=O)n(Cc3ccccc3)nc12` [Compound 28], which Ki is on record?
Answer: 2.7 nM

Question: Which Ki does the source give for `COC(=O)c1ccc2nc(N)c3nn(Cc4ccccc4)c(=O)n3c2c1` [Compound 55] here?
Answer: 70.8 nM

Question: Which Ki does the source give for `COc1ccc2nc(N)c3nn(Cc4ccccc4)c(=O)n3c2c1` [Compound 43] here?
Answer: 12.1 nM

Question: With `Nc1nc2ccccc2n2c(=O)n(Cc3ccccc3C(F)(F)F)nc12` [Compound 21] as the compound, how does the Ki read?
Answer: 1.8 nM

Question: How did the Ki turn out when `Nc1nc2ccccc2n2c(=O)n(CCc3ccccc3)nc12` [Compound 45] was run?
Answer: 29.2 nM

Question: With `Nc1nc2ccc(C(F)(F)F)cc2n2c(=O)n(Cc3c(F)cccc3F)nc12` [Compound 42] as the compound, how does the Ki read?
Answer: 10.2 nM

Question: How did the Ki turn out when `Cc1cccc2c1nc(N)c1nn(Cc3ccccc3)c(=O)n12` [Compound 3] was run?
Answer: 0.6 nM

Question: How did the Ki turn out when `Nc1nc2ccccc2n2c(=O)n(Cc3cccc(F)c3F)nc12` [Compound 8] was run?
Answer: 1 nM

Question: Which Ki does the source give for `Nc1nc2ccccc2n2c(=O)n(CC3CC3)nc12` [Compound 47] here?
Answer: 32.3 nM

Question: How did the Ki turn out when `Nc1nc2cc(F)c(F)cc2n2c(=O)n(Cc3ccccc3)nc12` [Compound 17] was run?
Answer: 1.4 nM

same assay, conditions: Table II; human A2a membranes, [3H]-SCH 58261 0.5 nM, Cheng-Prusoff; read-out: Activity (Ki in nM)

Question: `Nc1nc2ccccc2n2cc(Cc3ccccc3)nc12` [Compound 57] was tested. Which Ki did it give?
Answer: 4.1 nM

Question: `Nc1nc2ccccc2n2cc(C(=O)c3ccccc3)nc12` [Compound 59] was tested. Which Ki did it give?
Answer: 42 nM

Question: Which Ki does the source give for `Nc1nc2ccccc2n2cc(C(O)c3ccccc3)nc12` (stereo not drawn) [Compound 60] here?
Answer: 29 nM

Question: Which Ki does the source give for `Nc1nc2ccccc2n2cc(-c3ccccc3)nc12` [Compound 58] here?
Answer: 57 nM

same assay, conditions: assay of Example 25; read-out: Ki value for the adenosine A2a receptor

Question: For `Nc1nc2ccccc2n2nc(Cc3ccccc3)nc12` [Compound 61], which Ki is on record?
Answer: 0.7 nM

Question: With `Nc1nc2ccccc2c2nc(Cc3ccccc3)cn12` [Compound 62] as the compound, how does the Ki read?
Answer: 0.7 nM
